According to PubChem BioAssay (NCI):
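The concentration for 50% growth inhibition is given as GI50. Definition used: TGI = concentration required for complete inhibition of growth.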

Columns and labels:
Test in all cases: NCI-60 cell line screen, 384-well format
A549 NSCLC = tested on: A549 NSCLC
786-0 renal = tested on: 786-0 renal
MOLT-4 leukemia = tested on: MOLT-4 leukemia
LOX IMVI melanoma = tested on: LOX IMVI melanoma
UO-31 renal = tested on: UO-31 renal
OVCAR-4 ovarian = tested on: OVCAR-4 ovarian
SW-620 colon = tested on: SW-620 colon
SF-268 CNS = tested on: SF-268 CNS
NCI-H23 lung = tested on: NCI-H23 lung
COLO 205 colon = tested on: COLO 205 colon
OVCAR-5 ovarian = tested on: OVCAR-5 ovarian
HCT-15 colon = tested on: HCT-15 colon
UACC-257 melanoma = tested on: UACC-257 melanoma
ACHN renal = tested on: ACHN renal
SF-539 CNS = tested on: SF-539 CNS
NCI/ADR-RES ovarian = tested on: NCI/ADR-RES ovarian
MDA-MB-468 breast = tested on: MDA-MB-468 breast
OVCAR-3 ovarian = tested on: OVCAR-3 ovarian
SN12C renal = tested on: SN12C renal
SK-MEL-5 melanoma = tested on: SK-MEL-5 melanoma
SK-MEL-28 melanoma = tested on: SK-MEL-28 melanoma
M14 melanoma = tested on: M14 melanoma
CAKI-1 renal = tested on: CAKI-1 renal
K-562 leukemia = tested on: K-562 leukemia
RXF 393 renal = tested on: RXF 393 renal
HOP-92 NSCLC = tested on: HOP-92 NSCLC
MALME-3M melanoma = tested on: MALME-3M melanoma
PC-3 prostate = tested on: PC-3 prostate
NCI-H460 NSCLC = tested on: NCI-H460 NSCLC
BT-549 breast = tested on: BT-549 breast
TK-10 renal = tested on: TK-10 renal
CCRF-CEM leukemia = tested on: CCRF-CEM leukemia
MDA-MB-435 melanoma = tested on: MDA-MB-435 melanoma
HCT-116 colon = tested on: HCT-116 colon
EKVX NSCLC = tested on: EKVX NSCLC
SF-295 CNS = tested on: SF-295 CNS
U251 glioblastoma = tested on: U251 glioblastoma
A498 renal = tested on: A498 renal
T-47D breast = tested on: T-47D breast
NCI-H522 lung = tested on: NCI-H522 lung
SNB-75 CNS = tested on: SNB-75 CNS
NCI-H322M lung = tested on: NCI-H322M lung
NCI-H226 lung = tested on: NCI-H226 lung
SK-OV-3 ovarian = tested on: SK-OV-3 ovarian
HT29 colon = tested on: HT29 colon
SR leukemia = tested on: SR leukemia
OVCAR-8 ovarian = tested on: OVCAR-8 ovarian

C[C@@H](Oc1cc(NS(=O)(=O)N2CCC2)nc(SCc2cccc(F)c2F)n1)[C@@H](O)CO
GI50 (A549 NSCLC): > 100 µM
TGI (A549 NSCLC): > 100 µM
GI50 ([…]-0 renal): > 100 µM
TGI (786-0 renal): > 100 µM
GI50 (MOLT-4 leukemia): > 61.8 µM
TGI (MOLT-4 leukemia): > 100 µM
GI50 (LOX IMVI melanoma): 42.1 µM
TGI (LOX IMVI melanoma): > 100 µM
GI50 (UO-31 renal): 17.9 µM
TGI (UO-31 renal): 34.3 µM
GI50 (OVCAR-4 ovarian): > 72.7 µM
TGI (OVCAR-4 ovarian): > 100 µM
GI50 (SW-620 colon): > 100 µM
TGI (SW-620 colon): > 100 µM
GI50 (SF-268 CNS): > 100 µM
TGI (SF-268 CNS): > 100 µM
GI50 (NCI-H23 lung): 99.2 µM
TGI (NCI-H23 lung): > 100 µM
GI50 (COLO 205 colon): > 89.8 µM
TGI (COLO 205 colon): > 100 µM
GI50 (OVCAR-5 ovarian): > 100 µM
TGI (OVCAR-5 ovarian): > 100 µM
GI50 (HCT-15 colon): > 100 µM
TGI (HCT-15 colon): > 100 µM
GI50 (UACC-257 melanoma): > 87.1 µM
TGI (UACC-257 melanoma): > 100 µM
GI50 (ACHN renal): > 100 µM
TGI (ACHN renal): > 100 µM
GI50 (SF-539 CNS): > 100 µM
TGI (SF-539 CNS): > 100 µM
GI50 (NCI/ADR-RES ovarian): > 100 µM
TGI (NCI/ADR-RES ovarian): > 100 µM
GI50 (MDA-MB-468 breast): > 78.2 µM
TGI (MDA-MB-468 breast): > 100 µM
GI50 (OVCAR-3 ovarian): > 73.9 µM
TGI (OVCAR-3 ovarian): > 100 µM
GI50 (SN12C renal): > 100 µM
TGI (SN12C renal): > 100 µM
GI50 (SK-MEL-5 melanoma): > 59.4 µM
TGI (SK-MEL-5 melanoma): > 100 µM
GI50 (SK-MEL-28 melanoma): > 100 µM
TGI (SK-MEL-28 melanoma): > 100 µM
GI50 (M14 melanoma): > 95.7 µM
TGI (M14 melanoma): > 100 µM
GI50 (CAKI-1 renal): > 60.8 µM
TGI (CAKI-1 renal): > 100 µM
GI50 (K-562 leukemia): > 68.3 µM
TGI (K-562 leukemia): > 100 µM
GI50 (RXF 393 renal): > 81.5 µM
TGI (RXF 393 renal): > 100 µM
GI50 (HOP-92 NSCLC): > 88.1 µM
TGI (HOP-92 NSCLC): > 100 µM
GI50 (MALME-3M melanoma): > 82.1 µM
TGI (MALME-3M melanoma): > 100 µM
GI50 (PC-3 prostate): > 76.7 µM
TGI (PC-3 prostate): > 100 µM
GI50 (NCI-H460 NSCLC): > 100 µM
TGI (NCI-H460 NSCLC): > 100 µM
GI50 (BT-549 breast): > 71.9 µM
TGI (BT-549 breast): > 100 µM
GI50 (TK-10 renal): > 66 µM
TGI (TK-10 renal): > 100 µM
GI50 (CCRF-CEM leukemia): > 63.3 µM
TGI (CCRF-CEM leukemia): > 100 µM
GI50 (MDA-MB-435 melanoma): > 100 µM
TGI (MDA-MB-435 melanoma): > 100 µM
GI50 (HCT-116 colon): > 100 µM
TGI (HCT-116 colon): > 100 µM
GI50 (EKVX NSCLC): > 100 µM
TGI (EKVX NSCLC): > 100 µM
GI50 (SF-295 CNS): > 100 µM
TGI (SF-295 CNS): > 100 µM
GI50 (U251 glioblastoma): > 100 µM
TGI (U251 glioblastoma): > 100 µM
GI50 (A498 renal): > 79 µM
TGI (A498 renal): > 100 µM
GI50 (T-47D breast): > 100 µM
TGI (T-47D breast): > 100 µM
GI50 (NCI-H522 lung): > 43.5 µM
TGI (NCI-H522 lung): > 100 µM
GI50 (SNB-75 CNS): > 100 µM
TGI (SNB-75 CNS): > 100 µM
GI50 (NCI-H322M lung): > 100 µM
TGI (NCI-H322M lung): > 100 µM
GI50 (NCI-H226 lung): > 89.3 µM
TGI (NCI-H226 lung): > 100 µM
GI50 (SK-OV-3 ovarian): > 83.6 µM
TGI (SK-OV-3 ovarian): > 100 µM
GI50 (HT29 colon): > 100 µM
TGI (HT29 colon): > 100 µM
GI50 (SR leukemia): > 100 µM
TGI (SR leukemia): > 100 µM
GI50 (OVCAR-8 ovarian): > 100 µM
TGI (OVCAR-8 ovarian): > 100 µM

COc1cc(C)[nH]c(=O)c1CN1CCc2c(Cl)cc([C@H](OC)C3COC3)c(Cl)c2C1=O
GI50 (A549 NSCLC): > 100 µM
TGI (A549 NSCLC): > 100 µM
GI50 ([…]-0 renal): > 100 µM
TGI (786-0 renal): > 100 µM
GI50 (MOLT-4 leukemia): > 100 µM
TGI (MOLT-4 leukemia): > 100 µM
GI50 (LOX IMVI melanoma): > 100 µM
TGI (LOX IMVI melanoma): > 100 µM
GI50 (UO-31 renal): > 100 µM
TGI (UO-31 renal): > 100 µM
GI50 (OVCAR-4 ovarian): > 100 µM
TGI (OVCAR-4 ovarian): > 100 µM
GI50 (SW-620 colon): > 100 µM
TGI (SW-620 colon): > 100 µM
GI50 (SF-268 CNS): > 100 µM
TGI (SF-268 CNS): > 100 µM
GI50 (NCI-H23 lung): > 100 µM
TGI (NCI-H23 lung): > 100 µM
GI50 (COLO 205 colon): > 100 µM
TGI (COLO 205 colon): > 100 µM
GI50 (OVCAR-5 ovarian): > 100 µM
TGI (OVCAR-5 ovarian): > 100 µM
GI50 (HCT-15 colon): > 100 µM
TGI (HCT-15 colon): > 100 µM
GI50 (UACC-257 melanoma): > 100 µM
TGI (UACC-257 melanoma): > 100 µM
GI50 (ACHN renal): > 100 µM
TGI (ACHN renal): > 100 µM
GI50 (SF-539 CNS): > 100 µM
TGI (SF-539 CNS): > 100 µM
GI50 (NCI/ADR-RES ovarian): > 100 µM
TGI (NCI/ADR-RES ovarian): > 100 µM
GI50 (MDA-MB-468 breast): > 100 µM
TGI (MDA-MB-468 breast): > 100 µM
GI50 (OVCAR-3 ovarian): > 100 µM
TGI (OVCAR-3 ovarian): > 100 µM
GI50 (SN12C renal): > 100 µM
TGI (SN12C renal): > 100 µM
GI50 (SK-MEL-5 melanoma): > 100 µM
TGI (SK-MEL-5 melanoma): > 100 µM
GI50 (SK-MEL-28 melanoma): > 100 µM
TGI (SK-MEL-28 melanoma): > 100 µM
GI50 (M14 melanoma): > 100 µM
TGI (M14 melanoma): > 100 µM
GI50 (CAKI-1 renal): > 100 µM
TGI (CAKI-1 renal): > 100 µM
GI50 (K-562 leukemia): > 100 µM
TGI (K-562 leukemia): > 100 µM
GI50 (RXF 393 renal): > 100 µM
TGI (RXF 393 renal): > 100 µM
GI50 (HOP-92 NSCLC): > 100 µM
TGI (HOP-92 NSCLC): > 100 µM
GI50 (MALME-3M melanoma): > 100 µM
TGI (MALME-3M melanoma): > 100 µM
GI50 (PC-3 prostate): > 100 µM
TGI (PC-3 prostate): > 100 µM
GI50 (NCI-H460 NSCLC): > 100 µM
TGI (NCI-H460 NSCLC): > 100 µM
GI50 (BT-549 breast): > 100 µM
TGI (BT-549 breast): > 100 µM
GI50 (TK-10 renal): > 100 µM
TGI (TK-10 renal): > 100 µM
GI50 (CCRF-CEM leukemia): > 75.8 µM
TGI (CCRF-CEM leukemia): > 100 µM
GI50 (MDA-MB-435 melanoma): > 100 µM
TGI (MDA-MB-435 melanoma): > 100 µM
GI50 (HCT-116 colon): > 100 µM
TGI (HCT-116 colon): > 100 µM
GI50 (EKVX NSCLC): > 100 µM
TGI (EKVX NSCLC): > 100 µM
GI50 (SF-295 CNS): > 100 µM
TGI (SF-295 CNS): > 100 µM
GI50 (U251 glioblastoma): > 100 µM
TGI (U251 glioblastoma): > 100 µM
GI50 (A498 renal): > 100 µM
TGI (A498 renal): > 100 µM
GI50 (T-47D breast): > 91.9 µM
TGI (T-47D breast): > 100 µM
GI50 (NCI-H522 lung): > 100 µM
TGI (NCI-H522 lung): > 100 µM
GI50 (SNB-75 CNS): > 100 µM
TGI (SNB-75 CNS): > 100 µM
GI50 (NCI-H322M lung): > 100 µM
TGI (NCI-H322M lung): > 100 µM
GI50 (NCI-H226 lung): > 100 µM
TGI (NCI-H226 lung): > 100 µM
GI50 (SK-OV-3 ovarian): > 100 µM
TGI (SK-OV-3 ovarian): > 100 µM
GI50 (HT29 colon): > 100 µM
TGI (HT29 colon): > 100 µM
GI50 (SR leukemia): > 100 µM
TGI (SR leukemia): > 100 µM
GI50 (OVCAR-8 ovarian): > 100 µM
TGI (OVCAR-8 ovarian): > 100 µM
